Experiment: Dissolution of Apixaban in non-halogen and halogen organic solvents
Format: physicochemical
Experimental: 25 mg of Apixaban was added to 1 mL of each of ethyl acetate, ethyl formate, methyl propionate, and ethanol and stirred. As a result, it was confirmed that Apixaban was not dissolved in non-halogen organic solvents (FIG. 1).
25 mg of Apixaban was dissolved in 1 mL of dichloromethane, and the mixture was photographed after 12 hours.

COc1ccc(-n2nc(C(N)=O)c3c2C(=O)N(c2ccc(N4CCCCC4=O)cc2)CC3)cc1 [Apixaban]
Dissolution of Apixaban in halogen organic solvent (25 mg in 1 mL of dichloromethane, photographed after 12 hours): completely dissolved in the beginning, but after a certain time, crystals were formed | Dissolution of Apixaban in non-halogen organic solvents (25 mg in 1 mL of each of ethyl acetate, ethyl formate, methyl propionate, ethanol, stirred): not dissolved | Apixaban concentration in dichloromethane at which recrystallization occurs (dichloromethane): ≥ 10 mg/mL

From patent US20220183976A1, “COMPOSITIONS OF DISPERSED PHASE FOR PREPARATION OF APIXABAN-LOADED MICROSPHERES AND BIOCOMPATIBLE POLYMER-BASED APIXABAN-LOADED MICROSPHERES PREPARED THEREFROM” (HLB PHARMACEUTICAL CO., LTD., priority 2019, published 2022)
